# Test results reported in patent US6225478A, “Iridoid derivatives and neovascularization inhibitors containing the same as active ingredient” (Tsumura & Co., priority 1999, dated 2001).
# Like-named read-outs stand apart in the source and are kept apart here.
# What was measured:
# Assay type in all cases: cell-based
# [1] = system: human umbilical-vein endothelial cells (HUVEC); test: Cell Proliferation Assay (CPA) Test, HUVEC, MTT; details: M199 (2+) medium; for IC50: Homo sapiens, read-out: CPA (IC50 μg/ml)
# Experimental: (§1) Furthermore, the sample liquids of compounds used in the CPA and CMA tests were prepared in the manner described below. Firstly, after weighing out each compound, a calculated amount of DMSO was added. After dissolving the compound in the DMSO, phosphate buffered physiological saline (PBS (-)) was added to bring the sample concentration to 1 mg/ml in PBS (-). The amount of DMSO used to dissolve the compounds was adjusted in advance to that the concentration of DMSO at that time was 5%. The resulting liquids were diluted 10-fold with 5% DMSO-PBS (-) solution to prepare sample solutions having a concentration of 0.1 mg/ml. In the TFA test, 320 μl of the prepared 1 mg/ml sample solutions were removed followed by addition of 680 μl of PBS (-) to prepare samples having a concentration of […]. Moreover, 100 μl of this solution was removed followed by addition of 900 μl of PBS (-) to dilute 10-fold and prepare samples having a concentration of 1 μg/ml. P [Cell Proliferation Assay (CPA) Test]
# 100 μl of the 7th subculture obtained from first generation human umbilical-vein endothelial cells (HUVEC) were disseminated in the wells (N=3) of a 96-well plate (Iwaki, Cat. #4860-010) at a cell concentration of 5×10^4 cells/ml. M-199 medium containing +20% FCS, 10 ng/ml of b-FGF and 10 ng/ml of EGF (abbreviated as "M199 (2+)") was used for the medium.
# After culturing for 24 hours at 37° C. in the presence of 5% CO2 under the above conditions, 20 μl/well of MTT solution (solution containing 5 mg/ml of PBS (-)) were added to the control well followed by accurately culturing for 4 hours at 37° C. in the presence of 5% CO2. Following completion of culturing, 100 μl/well of a stop solution (0.001 N aqueous HCl solution containing 10% SDS) were added. On the other hand, 10 μl/well of sample solutions at concentrations of 1 mg/ml and 0.1 mg/ml were added to the other wells.
# After culturing for 24 hours at 37° C. in the presence of 5% CO2, the medium was replaced and 100 μl/well of M199 (2+) were added. The samples were also replaced in each well at this time.
# Moreover, after additionally culturing for 48 hours at 37° C. in the presence of 5% CO2, 20 μl/well of MTT solution were added to the wells containing sample and the control well followed by accurately culturing for 4 hours at 37° C. and adding 100 μl/well of stop solution.
# [2] = system: human umbilical-vein endothelial cells (HUVEC); test: Tube Formation Assay (TFA) Test, HUVEC in collagen gel; details: 20 hours, 40% or less judged remarkable; for inhibition at 1 µg/mL / inhibition at 10 µg/mL: Homo sapiens, HUVEC, read-out: TFA (inhibition rate, %)
# Outline: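 Inhibition rate (%) of tube formation is computed from tube lengths against control (+) and control (-), measured after 20 h at 37 °C in M-199 with 20% FCS, 30 ng/ml b-FGF and 0.1 μM PMA. Samples were applied to HUVEC on collagen and covered by a second collagen layer (double-layer gel).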
# [3] = system: human umbilical-vein endothelial cells (HUVEC); test: Cell Migration Assay (CMA) Test, HUVEC (% relative to control); details: 24 hours, 60% or less = remarkable inhibition; for activity at 1 µg/mL / activity at 10 µg/mL: Homo sapiens, HUVEC, read-out: CMA (% relative to control)
# Experimental: as §1
# After disseminating the 7th subculture of HUVEC obtained from the first generation in the same manner as above at 4 ml/well (3.0×10^5 cells/well) in a collagen-coated 6-well plate (NUNC), the cells were cultured for 48 hours at 37° C. in the presence of 5% CO2. The cells reached nearly a completely confluent state as a result of this culturing.
# A double-edged, disposable razor blade was divided into four sections, of which one of those sections was pinched between a pair of forceps. Using this piece of razor blade, the cell surface in the above confluent state was scraped off. Two areas of the cell surface were scraped off in each well.
# After washing the surface of the wells from which the cells had been scraped off with medium, 4.0 ml of fresh M199 (2+) medium were added followed by addition of 40 μl or 4 μl of sample solution (1 mg/ml). The cells were cultured for 24 hours at 37° C. in the presence of 5% CO2. After discarding the culture liquid, the cells were fixed for 30 minutes with methanol. Next, after staining the cells for 4 hours with Giemsa stain, the plates were washed with tap water and air dried.
# Measurement of cell migration was performed by microscopically counting the number of cells that had newly migrated within the range of a 1 mm×1 mm block. […] The total number of cells counted in blocks 1 through 5 were then totaled to determine the overall total number of cells. Four fields were counted for each well.
# Evaluation was performed determining the cell migration (%) according to the following formula.
# Cell migration rate=number of migrating cells to which sample was added×100/number of migrating of control (+)
# Control (+) indicates the number of migrating cells in the control well containing M199 (2+).
Structure (SMILES),IC50 [1] [µg/mL],"inhibition at 1 µg/mL ([2]; 20 h, 1 μg/ml) [%]","inhibition at 10 µg/mL ([2]; 20 h, 10 μg/ml) [%]",activity at 1 µg/mL ([3]; 1 μg/ml) [%],activity at 10 µg/mL ([3]; 10 μg/ml) [%],inhibition at 1 µg/mL ([2]; 1 μg/ml) [%],inhibition at 10 µg/mL ([2]; 10 μg/ml) [%],CPA (IC50 μg/ml) [1] [µg/mL],"TFA (inhibition rate, %) ([2]; 1 μg/ml) [%]","TFA (inhibition rate, %) ([2]; 10 μg/ml) [%]",CMA (% relative to control) ([3]; 1 μg/ml) [%],CMA (% relative to control) ([3]; 10 μg/ml) [%]
"CNC(=O)O[C@@H]1OC=C(C(=O)OC)[C@H]2C[C@@H]3OC3(COC)C12 (stereo in doubt) [compound 49, (1S,4aS,6S,7R,7aR)-6,7-epoxy-7-(methoxymethyl)-1-(methylcarbamoyloxy)-1,4a,5,6,7,7a-hexahydrocyclopenta [c] pyrane-4-carboxylic acid methylester]",> 100,21.2,12.8,102,104,–,–,–,–,–,–,–
"CNC(=O)O[C@@H]1OC=C(C(=O)OC)[C@H]2C[C@@H]3O[C@]3(CCl)C12 (stereo in doubt) [compound 51, (1S,4aS,6S,7R,7aR)-6,7-epoxy-7-(chloromethyl)-1-(methylcarbamoyloxy)-1,4a,5,6,7,7a-hexahydrocyclopenta [c]pyrane-4-carboxylic acid methylester]",> 100,19.1,-1.4,102,101,–,–,–,–,–,–,–
"O=c1[nH]cc(F)c(=O)[nH]1 [5-FU, 5-fluorouracil, reference compound]",3.5,–,–,102,92.9,42.4,52.3,–,–,–,–,–
"CNC(=O)OC[C@@H]1[C@H](C)CC[C@@H]1C1(COC(=O)NC)CO1 (stereo partly drawn) [Compound 58, 2-[(1S,2R,3R)-2-(methylcarbamoyloxy)methyl-3-methylcyclopento-1-yl]-2,3-epoxy-propane-1-methylcarbamate]",–,–,–,–,–,–,–,> 100.0,20.6,22.3,121.6,97.0
"CNC(=O)OC[C@@H]1[C@@H](C)CC[C@@H]1C1(COC(=O)NC)CO1 (stereo partly drawn) [Compound 59, 2-[(1S,2R,3S)-2-(methylcarbamoyloxy)methyl-3-methylcyclopento-1-yl]-2,3-epoxy-propane-1-methylcarbamate]",–,–,–,–,–,–,–,> 100.0,5.9,-4.5,99.3,92.5
"CNC(=O)OC[C@]12O[C@H]1C[C@@H]1C(C(=O)OC)=CO[C@@H](O)[C@@H]12 [Compound 60, (4aS,6S,7R,7aR)-6,7-epoxy-1-hydroxy-7-methylcarbamoyloxymethyl-1,4a,5,6,7a-pentahydro [c] pyrane-4-carboxylic acid methylester]",> 100,32.7,41.5,87.1,96.3,–,–,–,–,–,–,–
"CN(Cc1cnc2nc(N)nc(N)c2n1)c1ccc(C(=O)N[C@@H](CCC(=O)O)C(=O)O)cc1 [MTX, Methotrexate, reference compound]",0.04,–,–,102,103,37.5,42.6,–,–,–,–,–
"CNC(=O)O[C@@H]1OC=C(C(=O)O)[C@H]2C[C@@H]3O[C@]3(C)[C@H]12 [compound 1, (1S,4aS,6S,7R,7aR)-6,7-epoxy-1,4a,5,6,7,7a-hexahydro-7-methyl-1-(methylcarbamoyloxy) cyclopenta [c]-pyrane-4-carboxylic acid]",> 100,49.8,37.8,98.5,93.5,–,–,–,–,–,–,–
"CNC(=O)O[C@@H]1OC=C(C(=O)OC)[C@H]2C[C@@H]3O[C@]3(C)[C@H]12 [compound 3, (1S,4aS,6S,7R,7aR)-6,7-epoxy-1,4a,5,6,7,7a-hexahydro-1-methylcarbamoyloxy-7-methylcyclopenta [c] pyrane-4-carboxylic acid methylester]",> 100,33,33.5,68.5,57.3,–,–,–,–,–,–,–
"CCOC(=O)C1=CO[C@@H](OC(=O)NC)[C@@H]2[C@@H]1C[C@@H]1O[C@]21C [compound 4, (1S,4aS,6S,7R,7aR)-6,7-epoxy-1,4a,5,6,7,7a-hexahydro-7-methyl-1-(methylcarbamoyloxy) cyclopenta [c]-pyrane-4-carboxylic acid ethylester]",> 100,40.5,5.6,70.8,53,–,–,–,–,–,–,–
"CCCCCCOC(=O)C1=CO[C@@H](OC(=O)NC)[C@@H]2[C@@H]1C[C@@H]1O[C@]21C [compound 5, (1S,4aS,6S,7R,7aR)-6,7-epoxy-1,4a,5,6,7,7a-hexahydro-7-methyl-1-(methylcarbamoyloxy) cyclopenta [c]-pyrane-4-carboxylic acid n-hexylester]",44.9,20.8,34.5,98.6,82,–,–,–,–,–,–,–
"CNC(=O)O[C@@H]1OC=C(C(=O)OC/C=C(\C)CCC=C(C)C)[C@H]2C[C@@H]3O[C@]3(C)[C@H]12 [compound 6, (1S,4aS,6S,7R,7aR)-6,7-epoxy-1,4a,5,6,7,7a-hexahydro-7-methyl-1-(methylcarbamoyloxy) cyclopenta [c]-pyrane-4-carboxylic acid geranyl ester]",> 100,24.2,8.7,106,105,–,–,–,–,–,–,–
"C=CCCCOC(=O)C1=CO[C@@H](OC(=O)NC)[C@@H]2[C@@H]1C[C@@H]1O[C@]21C [compound 7, (1S,4aS,6S,7R,7aR)-6,7-epoxy-1,4a,5,6,7,7a-hexahydro-7-methyl-1-(methylcarbamoyloxy) cyclopenta [c]-pyrane-4-carboxylic acid 4-pentenylester]",90.6,25.8,18.2,82.6,79.7,–,–,–,–,–,–,–
"C=CCCOC(=O)C1=CO[C@@H](OC(=O)NC)[C@@H]2[C@@H]1C[C@@H]1O[C@]21C [compound 8, (1S,4aS,6S,7R,7aR)-6,7-epoxy-1,4a,5,6,7,7a-hexahydro-7-methyl-1-(methylcarbamoyloxy) cyclopenta [c]-pyrane-4-carboxylic acid 3-butenylester]",60.5,27.3,93.2,75.4,60.5,–,–,–,–,–,–,–
